Key:
RPMI-8226 target cells = test: Rescue: rechallenge of chronically stimulated anti-BCMA CAR T cells with RPMI-8226 in the presence of compound; format: cell-based, human
Protocol: Anti-BCMA CAR-expressing T cells, produced as described in Example 1, were stimulated with 50 μg BCMA conjugated beads (diameter about 4.5 μm from a 50 μg/ml BCMA-conjugated bead composition) substantially as described in Example 3 to induce chronic stimulation (to produce hypofunctional, exhausted T cells). After the chronic stimulation, the CAR-T cells were rechallenged with RPMI-8226 target cells (labeled with NucLightRed as described in Example 2) at a 1:1 (effector:target) ratio in the presence of (rescued) with Compound A (iberdomide, (S)-3-[4-(4-morpholin-4-ylmethyl-benzyloxy)-1-oxo-1,3-dihydro-isoindol-2-yl]-piperidine-2,6-dione) (1 nM or 10 nM), Compound B ((S)-4-(4-(4-(((2-(2,6-dioxopiperidin-3-yl)-1-oxoisoindolin-4-yl)oxy)methyl)benzyl)piperazin-1-yl)-3-fluorobenzonitrile) (0.1 nM or 1 nM), or DMSO vehicle control.
Killing activity and cytokine production were assessed as described in Example 3.
Studies were undertaken to determine whether Compound A (iberdomide, (S)-3-[4-(4-morpholin-4-ylmethyl-benzyloxy)-1-oxo-1,3-dihydro-isoindol-2-yl]-piperidine-2,6-dione) rescued anti-BCMA CAR T cell function following chronic stimulation. To directly stimulate via CAR engagement to induce chronic stimulation of cells, anti-BCMA CAR T cells were stimulated with BCMA conjugated beads (diameter about 4.5 μm from a 50 μg/ml BCMA-conjugated bead composition, generated as described in Example 9) at a ratio of T cells to beads of 1:1. The cells were then incubated at 37° C., 5% CO2 for 7 days.
Cultures were incubated at 37° C., 5% CO2, and images were taken every 2 hours over 5-7 days with an Essen IncuCyte Zoom live-cell analysis system to track NucLightRed-positive target cells.

OPM2 target cells = test: Acute co-culture cytokine secretion of anti-BCMA CAR T cells with OPM2; format: cell-based, human; settings: OPM2, E:T 1:1, 24 hours, 0.01-10,000 nM, FIG. 2B
Protocol: Anti-tumor effects of anti-BCMA CAR T cells, alone and in combination with cell immunomodulatory compounds Compound A (iberdomide, (S)-3-[4-(4-morpholin-4-ylmethyl-benzyloxy)-1-oxo-1,3-dihydro-isoindol-2-yl]-piperidine-2,6-dione) or Compound B ((S)-4-(4-(4-(((2-(2,6-dioxopiperidin-3-yl)-1-oxoisoindolin-4-yl)oxy)methyl)benzyl)piperazin-1-yl)-3-fluorobenzonitrile), were assessed in two different BCMA-expressing target multiple myeloma cell lines RPMI-8226 or OPM-2. Anti-BCMA CAR+ T cells were generated as described in Example 1.
The anti-BCMA CAR-expressing T cells were incubated with target cells, RPMI 8226 (BCMA^med human multiple myeloma cell line) or OPM2 cells (BCMA^med human multiple myeloma cell line) target cells, at an E:T ratio of 1:1. The co-culture incubation with target cells was carried out in the presence of Compound A (0.01 nM, 0.1 nM, 1 nM, 10 nM, 100 nM, 1000 nM, or 10,000 nM) or Compound B (0.01 nM, 0.1 nM, 1 nM, 10 nM, 100 nM, 1000 nM, or 10,000 nM).
Cytokine secretion of IL-2, TNFα and IFN-gamma cytokines from cell culture supernatant of the co-cultures after 24 hours of incubation with targets cells was determined. Co-culture of anti-BCMA CAR+ T cells with Compound A enhanced the CAR T cytokine production both against RPMI-8226 target cells (FIG. 2A) and OPM2 target cells (FIG. 2B).

[1] = tested on: OPM2 (multiple myeloma) cells; test: Murine orthotopic OPM-2 tumor model (sensitive), anti-BCMA CAR T cells plus Compound A; format: in vivo, mouse; settings: for tumor burden (BLI) versus anti-BCMA CAR T cells alone: combination with 0.5×10^6 CAR T cells, 1 or 3 mg/kg oral, FIG. 6A; for survival versus anti-BCMA CAR T cells alone: FIG. 6B
Protocol: Anti-tumor effects of anti-BCMA CAR T cells, alone and in combination with concurrent or delayed administration of Compound A (iberdomide, (S)-3-[4-(4-morpholin ylmethyl-benzyloxy)-1-oxo-1,3-dihydro-isoindol-2-yl]-piperidine-2,6-dione), were assessed in disseminated tumor models. The combinatorial effects were assessed in both tumor models sensitive to and resistant to the immunomodulatory compound. The anti-BCMA CAR T cells used in the study were produced as described in Example 1.
The effects of anti-BCMA CAR-T cells in combination with Compound A was assessed in a murine orthotopic tumor model using OPM-2 cells, which is an tumor model sensitive to the immunomodulatory compound. Mice (NOD.Cg-Prkdc^scidIL-2rg^tm1Wj1/SzJ mice (NSG; Jackson Labs)) were injected intravenously (i.v.) with 2×10^6 OPM2 (multiple myeloma) cells transfected with firefly luciferase (OPM2-ffluc). Tumor engraftment was allowed to occur for 13 days prior to staging (14 days before CAR-T cell administration) and verified using bioluminescence imaging.
In one study, mice were administered Compound A (1 mg/kg or 3 mg/kg) via oral administration once a day starting from the day before administration of 0.5×10^6 anti-BCMA CAR T cells, and administration of Compound A was continued once a day until 32 days post-CAR T cell administration (concurrent dosing). In another study, mice were administered 0.5×10^6 anti-BCMA CAR T cells, and then Compound A (1 mg/kg or 3 mg/kg) was administered via oral administration once a day starting 12 days after anti-CAR T cell administration, which was after the peak of CAR-expressing T cell expansion, and administration was continued for 21 days until 32 days post-CAR T cell administration (delayed dosing).
For bioluminescence imaging (BLI), mice received intraperitoneal (i.p.) injections of luciferin substrate (CaliperLife Sciences, Hopkinton, Mass.) resuspended in PBS (15 μg/g body weight). The average radiance (p/s/cm^2/sr) was determined. Survival of mice treated as described above were assessed and compared over time post-infusion of CAR-expressing T cells. Survival curves were generated using the Kaplan-Meier method (GraphPad Prism 7.0, GraphPad Software, La Jolla).
The numbers of CD3+ CAR T cells were determined in the blood at day 6 and day 14 by flow cytometry using antibodies directed against CD3 and the surrogate marker on the CAR-expressing cells.

With `O=C1CC[C@H](N2Cc3c(OCc4ccc(CN5CCOCC5)cc4)cccc3C2=O)C(=O)N1` [Compound A, (S)-3-[4-(4-morpholin-4-ylmethyl-benzyloxy)-1-oxo-1,3-dihydro-isoindol-2-yl]-piperidine-2,6-dione] the “rescue of chronically activated CAR T cells” value (RPMI-8226 target cells; Example 4: Compound A 1 or 10 nM, Compound B 0.1 or 1 nM during re-challenge) was “able to rescue chronically activated CAR T cells to improve functionality”, the “cytolytic activity, compound present during re-challenge” value (RPMI-8226 target cells; Example 8: E:T 0.3:1, Compound A 1 nm or 10 nM, versus no compound, FIG. 10A) was “improvement in cytolytic activity” and the “production of IFN-gamma” value (RPMI-8226 target cells; Example 8: supernatant at 24 hours, FIG. 10B) was “increased production”. The “production of IL-2” value (RPMI-8226 target cells; Example 8: supernatant at 24 hours, FIG. 10C) was “increased production”, the “production of TNF-alpha” value (RPMI-8226 target cells; Example 8: supernatant at 24 hours, FIG. 10D) was “increased production” and the “CAR T cytokine production (IL-2, TNFα, IFN-gamma in supernatant)” value (OPM2 target cells) was “enhanced”. For the same compound, the “single agent antitumor activity” value ([1]; Compound A alone, 1 or 3 mg/kg oral once a day) was “some single agent antitumor activity”, the “tumor burden (BLI) versus anti-BCMA CAR T cells alone” value ([1]; concurrent dosing) was “reduce tumor burden” and the “tumor burden (BLI) versus anti-BCMA CAR T cells alone” value ([1]; delayed dosing from day 12) was “reduce tumor burden”. The “survival versus anti-BCMA CAR T cells alone” value ([1]; combination, concurrent dosing) was “improve survival”, the “numbers of CD3+ CAR+ T cells in the blood” value ([1]; combination, concurrent regimen, day 6 and day 14, FIG. 6C) was “trend towards increased numbers” and the “survival versus anti-BCMA CAR T cells alone” value ([1]; combination, delayed dosing) was “improve survival”.

Reference: US20230165872A1, “COMBINATION OF BCMA-DIRECTED T CELL THERAPY AND AN IMMUNOMODULATORY COMPOUND” (Juno Therapeutics, Inc., priority 2020, published 2023)
